Results: PubChem BioAssay (NCI)
Several values for one entry are separate records, joined by “and”; a condition that tells them apart may be missing. Equal entries are not always repeated.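 48-hour exposure; five concentrations; linearly interpolated endpoints. At the GI50, growth is halved. Definition used: TGI = concentration required for complete inhibition of growth.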

System: UO-31 renal
Assay: NCI tumour cell line growth inhibition, 48 h

| SMILES | TGI | GI50 |
| --- | --- | --- |
| CCCCCCCCCCCCCCCC(=O)OCC(C[As](=O)(O)O)OC(=O)CCCCCCCCCCCCCCC (stereo unspecified) | > 100 µM |  |
| O=C1/C(=C(/c2ccccc2)N2CCOCC2)Cc2ccccc21 | 1.08 µM | 0.455 µM |
| CC1=CC(=O)C=CC1=O | 26 µM and 17.6 µM | 12.7 µM and 4.8 µM |
| CCCC(CCC)NCC(O)c1cc(-c2ccc(C(F)(F)F)cc2)nc(C(F)(F)F)c1 (stereo unspecified) | 3.13 µM | 1.58 µM |
| Cc1cc(C)c(NC(=O)c2sc3nc4c(cc3c2N)C(=O)CCC4)c(C)c1 | > 100 µM | 9.04 µM |
| CN(C)CCNc1ccc(CO)c2oc3ccc(O)cc3c(=O)c12 | 31.3 µM |  |
| Cc1ccc(NC(=O)c2cccc(C(C)(C)C#N)c2)cc1Nc1ccc2ncn(C)c(=O)c2c1 | > 100 µM | 0.475 µM |
| Cc1cc2ncnn2cc1Nc1ncc2c(n1)n(C1CCOCC1)c(=O)n2C | > 100 µM | 2.83 µM |
| Cc1ccc(N=C/C=C(\Nc2ccc(C)cc2)c2ccc(Cl)cc2)cc1 | 85.8 µM | 21.4 µM |
| COc1ccc(C(=O)c2cc(C)c(OC)c(C)c2)c(OC)c1O | > 54 µM | 0.0695 µM |
| COCC[C@H]1CCC/C=C/[C@@H]2C[C@H](O)C[C@H]2[C@H](O)/C=C/C(=O)O1 |  | 0.0563 µM |
| COC(=O)Nc1nc2ccc(C3(c4ccc(F)cc4)OCCO3)cc2[nH]1 | > 100 µM | 3.39 µM |
| O=C(Nc1n[nH]c2cc(-c3ccccc3)ccc12)C1CC1 | > 25 µM | 16.9 µM |

System: OVCAR-8 ovarian
Assay: NCI tumour cell line growth inhibition, 48 h

| SMILES | GI50 [µM] | TGI [µM] |
| --- | --- | --- |
| COc1cc(OC)c(C(=O)/C=C/c2cccc(C(F)(F)F)c2)c(OC)c1 | 1.41 | 5.86 |
| C/C(=N\Nc1ccc(Cl)cn1)c1ccc2ccccc2n1 | 3.04 | > 100 |
| CN1CCc2nc(N)nc(-c3nc(N)nc4c3CN(C)CC4)c2C1 |  | > 100 |
| COc1c2c(cc3c1OCO3)[C@]13C=C[C@H](OC)C[C@H]1N(C2)CC3O (stereo partly specified) |  | > 100 |
| COc1ccc(C[N+](C)(C)N)cc1OC | > 100 | > 100 |
| COc1c(C(=O)/C=C/c2ccccc2)c(O)cc2occc12 | 3.62 | 12.5 |
| CC(C)c1c(O)c(O)c2c(c1O)C(=O)C(O)=C1C(C)(C)CCC[C@@]12C |  | 10.2 |
| NS(=O)(=O)c1ccc(-c2ccc3c(NC(=O)C4CC4)n[nH]c3c2)cc1 | > 25 | > 25 |
| C=CCCCCC/C=C\[C@@H](O)C#CC#C/C=C/CO | 25.1 | 68.9 |
| N#Cc1cc(-c2cc3ccccc3o2)oc1N | 4.32 | > 100 |
| Cc1cc(C(=O)Nc2ccc3cc(CN4CCOCC4)ccc3n2)c(C)n1-c1ccccc1 | 1.21 | 5.43 |
| O=S(=O)(c1ccc(NC(=S)NC23CC4CC(CC(C4)C2)C3)cc1)N1CCCCC1 | 3.22 | > 100 |
| CCCCCCCCCCCCCCCC(=O)OCC(C[As](=O)(O)O)OC(=O)CCCCCCCCCCCCCCC (stereo unspecified) |  | > 100 |
| O=C1/C(=C(/c2ccccc2)N2CCOCC2)Cc2ccccc21 | 3.9 | 13.7 |
| CC1=CC(=O)C=CC1=O | 17.7 | 41.4 |
| CCCC(CCC)NCC(O)c1cc(-c2ccc(C(F)(F)F)cc2)nc(C(F)(F)F)c1 (stereo unspecified) | 1.83 | 3.68 |
| Cc1cc(C)c(NC(=O)c2sc3nc4c(cc3c2N)C(=O)CCC4)c(C)c1 | 5.88 | > 100 |
| CN(C)CCNc1ccc(CO)c2oc3ccc(O)cc3c(=O)c12 |  | 14.4 |
| Cc1ccc(NC(=O)c2cccc(C(C)(C)C#N)c2)cc1Nc1ccc2ncn(C)c(=O)c2c1 | 4.96 | > 100 |
| Cc1cc2ncnn2cc1Nc1ncc2c(n1)n(C1CCOCC1)c(=O)n2C | 11.5 | > 100 |
| Cc1ccc(N=C/C=C(\Nc2ccc(C)cc2)c2ccc(Cl)cc2)cc1 | 14.6 | 53.6 |
| COc1ccc(C(=O)c2cc(C)c(OC)c(C)c2)c(OC)c1O | 0.0459 | > 100 |
| COCC[C@H]1CCC/C=C/[C@@H]2C[C@H](O)C[C@H]2[C@H](O)/C=C/C(=O)O1 | 0.0483 | > 100 |
| COC(=O)Nc1nc2ccc(C3(c4ccc(F)cc4)OCCO3)cc2[nH]1 | 0.527 | > 100 |
| O=C(Nc1n[nH]c2cc(-c3ccccc3)ccc12)C1CC1 | 14.5 | > 25 |

System: RPMI-8226 leukemia
Assay: NCI tumour cell line growth inhibition, 48 h

| SMILES | GI50 | TGI |
| --- | --- | --- |
| COc1cc(OC)c(C(=O)/C=C/c2cccc(C(F)(F)F)c2)c(OC)c1 | 1.03 µM | 2.85 µM |
| C/C(=N\Nc1ccc(Cl)cn1)c1ccc2ccccc2n1 | 2.05 µM | > 100 µM |
| CN1CCc2nc(N)nc(-c3nc(N)nc4c3CN(C)CC4)c2C1 |  | > 100 µM |
| COc1c2c(cc3c1OCO3)[C@]13C=C[C@H](OC)C[C@H]1N(C2)CC3O (stereo partly specified) |  | > 100 µM |
| COc1ccc(C[N+](C)(C)N)cc1OC | > 100 µM | > 100 µM |
| COc1c(C(=O)/C=C/c2ccccc2)c(O)cc2occc12 | 3.15 µM | 9.42 µM |
| CC(C)c1c(O)c(O)c2c(c1O)C(=O)C(O)=C1C(C)(C)CCC[C@@]12C |  | 3.99 µM |
| NS(=O)(=O)c1ccc(-c2ccc3c(NC(=O)C4CC4)n[nH]c3c2)cc1 | > 25 µM | > 25 µM |
| C=CCCCCC/C=C\[C@@H](O)C#CC#C/C=C/CO | 16.3 µM | 38.4 µM |
| N#Cc1cc(-c2cc3ccccc3o2)oc1N | 1.46 µM | 5.04 µM |
| Cc1cc(C(=O)Nc2ccc3cc(CN4CCOCC4)ccc3n2)c(C)n1-c1ccccc1 | 0.822 µM | 3.73 µM |
| O=S(=O)(c1ccc(NC(=S)NC23CC4CC(CC(C4)C2)C3)cc1)N1CCCCC1 | 2.15 µM | 5.86 µM |
| CCCCCCCCCCCCCCCC(=O)OCC(C[As](=O)(O)O)OC(=O)CCCCCCCCCCCCCCC (stereo unspecified) |  | > 100 µM |
| O=C1/C(=C(/c2ccccc2)N2CCOCC2)Cc2ccccc21 | 0.522 µM |  |
| CC1=CC(=O)C=CC1=O | 5.11 µM and 3.32 µM | 39.9 µM and 102 µM |
| CCCC(CCC)NCC(O)c1cc(-c2ccc(C(F)(F)F)cc2)nc(C(F)(F)F)c1 (stereo unspecified) | 2.15 µM | 4.87 µM |
| Cc1cc(C)c(NC(=O)c2sc3nc4c(cc3c2N)C(=O)CCC4)c(C)c1 | 4.74 µM | > 100 µM |
| CN(C)CCNc1ccc(CO)c2oc3ccc(O)cc3c(=O)c12 |  | 51.1 µM |
| Cc1ccc(NC(=O)c2cccc(C(C)(C)C#N)c2)cc1Nc1ccc2ncn(C)c(=O)c2c1 | 3.25 µM | > 100 µM |
| Cc1cc2ncnn2cc1Nc1ncc2c(n1)n(C1CCOCC1)c(=O)n2C | 4.41 µM | > 100 µM |
| Cc1ccc(N=C/C=C(\Nc2ccc(C)cc2)c2ccc(Cl)cc2)cc1 | 3.53 µM | > 100 µM |
| COc1ccc(C(=O)c2cc(C)c(OC)c(C)c2)c(OC)c1O | 0.0463 µM | > 62.6 µM |
| COCC[C@H]1CCC/C=C/[C@@H]2C[C@H](O)C[C@H]2[C@H](O)/C=C/C(=O)O1 | 0.284 µM |  |
| COC(=O)Nc1nc2ccc(C3(c4ccc(F)cc4)OCCO3)cc2[nH]1 | 0.427 µM | > 100 µM |
| O=C(Nc1n[nH]c2cc(-c3ccccc3)ccc12)C1CC1 | 9.58 µM | > 25 µM |
